Reference: patent US20060205640A1, “Papillosin antimicrobial peptide, a gene coding said peptide, a vector, a transformed organism and a compound containing said organism” (priority 2003, published 2006)
No end group written: not given here.

Legend:
S. aureus = type: cell-based; conditions: gram-positive bacteria, 18 hours incubation, Mueller Hinton
Method: (§1) Complementary tests were carried out in order to determine the spectrum of activity of papillosin. The minimal bactericidal concentration (MBC) for each bacterial strain tested is determined as follows: The peptide is placed in a solution containing 0.01% acetic acid and 0.2% bovine serum albumin (BSA), then, serial dilutions of 2 in [sic—and?] 2 are realized in the same 0.01% solution of acetic acid and 0.2% BSA. 10 μl of each dilution are incubated in sterile 96-well plates (Becton Dickinson, USA, ref: 18572) in the presence of 100 μl of a bacterial suspension brought to an optical density of 0.001 at 600 nm in the Mueller Hinton environment (MHB, SIGMA, ref: M-9677).
(§2) The bacterial growth is monitored after 18 hours of incubation under agitation. The MBC is determined by spreading out the content of the first three wells in which no bacterial growth was observed; this spreading out was carried out on Petri dishes on which an agar was poured prepared from the Mueller Hinton environment. These dishes were then incubated 18 hours. The MBC corresponds to the lowest concentration of peptide for which no bacterial colony was observed on the incubated dishes.

E. coli = type: cell-based; conditions: gram-negative bacteria, 18 hours incubation, Mueller Hinton
Method: as §1, §2

Sequence: GFWKKVGSAAWGGVKAAAKGAAVGGLNALAKHIQ [papillosin]
- MBC (S. aureus): 0.5 to 1 µM
- MBC (E. coli): 0.25 to 0.5 µM
